Earlier results as cited in article PMC9781217, “Discovery of Novel and Selective G-Protein Coupled Receptor 120 (GPR120) Agonists for the Treatment of Type 2 Diabetes Mellitus” (Molecules, 2022).

Key:
human GPR120 = tested on: human GPR120; design: method as in ref 15-27 = [15]; PMID 22519963; doi:10.1021/jm300215x; 15. Shimpukade B. Hudson B.D. Hovgaard C.K. Milligan G. Ulven T. Discovery of a potent and selective GPR120 agonist J. Med. Chem. 2012 55 4511 4515 10.1021/jm300215x 22519963 || [16]; PMID 24881566; doi:10.1016/j.bmcl.2014.05.012; 16. Sparks S.M. Chen G. Collins J.L. Danger D. Dock S.T. Jayawickreme C. Jenkinson S. Laudeman C. Leesnitzer M.A. Liang X. Identification of diarylsulfonamides as agonists of the free fatty acid recep || [17]; PMID 27570890; doi:10.1021/acs.jmedchem.6b00685; 17. Azevedo C.M. Watterson K.R. Wargent E.T. Hansen S.V. Hudson B.D. Kepczynska M.A. Dunlop J. Shimpukade B. Christiansen E. Milligan G. Non-Acidic Free Fatty Acid Receptor 4 Agonists with Antidiabeti || [18]; PMID 27815121; doi:10.1016/j.bmcl.2016.10.054; 18. Lombardo M. Bender K. London C. Kirkland M. Mane J. Pachanski M. Geissler W. Cummings J. Habulihaz B. Akiyama T.E. Discovery of benzofuran propanoic acid GPR120 agonists: From uHTS hit to mechanis || [19]; PMID 28105282; doi:10.1021/acsmedchemlett.6b00394; 19. Adams G.L. Velazquez F. Jayne C. Shah U. Miao S. Ashley E.R. Madeira M. Akiyama T.E. Di Salvo J. Suzuki T. Discovery of Chromane Propionic Acid Analogues as Selective Agonists of GPR120 with in Vi; conditions: cited from earlier work
hGPR40 = tested on: hGPR40; design: method as in ref 15-26 = [15]; PMID 22519963; doi:10.1021/jm300215x; 15. Shimpukade B. Hudson B.D. Hovgaard C.K. Milligan G. Ulven T. Discovery of a potent and selective GPR120 agonist J. Med. Chem. 2012 55 4511 4515 10.1021/jm300215x 22519963 || [16]; PMID 24881566; doi:10.1016/j.bmcl.2014.05.012; 16. Sparks S.M. Chen G. Collins J.L. Danger D. Dock S.T. Jayawickreme C. Jenkinson S. Laudeman C. Leesnitzer M.A. Liang X. Identification of diarylsulfonamides as agonists of the free fatty acid recep || [17]; PMID 27570890; doi:10.1021/acs.jmedchem.6b00685; 17. Azevedo C.M. Watterson K.R. Wargent E.T. Hansen S.V. Hudson B.D. Kepczynska M.A. Dunlop J. Shimpukade B. Christiansen E. Milligan G. Non-Acidic Free Fatty Acid Receptor 4 Agonists with Antidiabeti || [18]; PMID 27815121; doi:10.1016/j.bmcl.2016.10.054; 18. Lombardo M. Bender K. London C. Kirkland M. Mane J. Pachanski M. Geissler W. Cummings J. Habulihaz B. Akiyama T.E. Discovery of benzofuran propanoic acid GPR120 agonists: From uHTS hit to mechanis || [19]; PMID 28105282; doi:10.1021/acsmedchemlett.6b00394; 19. Adams G.L. Velazquez F. Jayne C. Shah U. Miao S. Ashley E.R. Madeira M. Akiyama T.E. Di Salvo J. Suzuki T. Discovery of Chromane Propionic Acid Analogues as Selective Agonists of GPR120 with in Vi; conditions: Figure 1; cited from earlier work
GPR120 = tested on: GPR120; design: method as in ref 15-26 = [15]; PMID 22519963; doi:10.1021/jm300215x; 15. Shimpukade B. Hudson B.D. Hovgaard C.K. Milligan G. Ulven T. Discovery of a potent and selective GPR120 agonist J. Med. Chem. 2012 55 4511 4515 10.1021/jm300215x 22519963 || [16]; PMID 24881566; doi:10.1016/j.bmcl.2014.05.012; 16. Sparks S.M. Chen G. Collins J.L. Danger D. Dock S.T. Jayawickreme C. Jenkinson S. Laudeman C. Leesnitzer M.A. Liang X. Identification of diarylsulfonamides as agonists of the free fatty acid recep || [17]; PMID 27570890; doi:10.1021/acs.jmedchem.6b00685; 17. Azevedo C.M. Watterson K.R. Wargent E.T. Hansen S.V. Hudson B.D. Kepczynska M.A. Dunlop J. Shimpukade B. Christiansen E. Milligan G. Non-Acidic Free Fatty Acid Receptor 4 Agonists with Antidiabeti || [18]; PMID 27815121; doi:10.1016/j.bmcl.2016.10.054; 18. Lombardo M. Bender K. London C. Kirkland M. Mane J. Pachanski M. Geissler W. Cummings J. Habulihaz B. Akiyama T.E. Discovery of benzofuran propanoic acid GPR120 agonists: From uHTS hit to mechanis || [19]; PMID 28105282; doi:10.1021/acsmedchemlett.6b00394; 19. Adams G.L. Velazquez F. Jayne C. Shah U. Miao S. Ashley E.R. Madeira M. Akiyama T.E. Di Salvo J. Suzuki T. Discovery of Chromane Propionic Acid Analogues as Selective Agonists of GPR120 with in Vi; conditions: Figure 1, representative GPR120 agonists; cited from earlier work
GPR40 = tested on: GPR40; design: method as in ref 15-26 = [15]; PMID 22519963; doi:10.1021/jm300215x; 15. Shimpukade B. Hudson B.D. Hovgaard C.K. Milligan G. Ulven T. Discovery of a potent and selective GPR120 agonist J. Med. Chem. 2012 55 4511 4515 10.1021/jm300215x 22519963 || [16]; PMID 24881566; doi:10.1016/j.bmcl.2014.05.012; 16. Sparks S.M. Chen G. Collins J.L. Danger D. Dock S.T. Jayawickreme C. Jenkinson S. Laudeman C. Leesnitzer M.A. Liang X. Identification of diarylsulfonamides as agonists of the free fatty acid recep || [17]; PMID 27570890; doi:10.1021/acs.jmedchem.6b00685; 17. Azevedo C.M. Watterson K.R. Wargent E.T. Hansen S.V. Hudson B.D. Kepczynska M.A. Dunlop J. Shimpukade B. Christiansen E. Milligan G. Non-Acidic Free Fatty Acid Receptor 4 Agonists with Antidiabeti || [18]; PMID 27815121; doi:10.1016/j.bmcl.2016.10.054; 18. Lombardo M. Bender K. London C. Kirkland M. Mane J. Pachanski M. Geissler W. Cummings J. Habulihaz B. Akiyama T.E. Discovery of benzofuran propanoic acid GPR120 agonists: From uHTS hit to mechanis || [19]; PMID 28105282; doi:10.1021/acsmedchemlett.6b00394; 19. Adams G.L. Velazquez F. Jayne C. Shah U. Miao S. Ashley E.R. Madeira M. Akiyama T.E. Di Salvo J. Suzuki T. Discovery of Chromane Propionic Acid Analogues as Selective Agonists of GPR120 with in Vi; conditions: cited from earlier work; for EC50: Figure 1, representative GPR120 agonists

| SMILES | EC50 (human GPR120) | EC50 (hGPR40) | EC50 (GPR120) | EC50 (GPR40) | GPR40 activity (GPR40; at 100 μM, Figure 1) |
| --- | --- | --- | --- | --- | --- |
| CO[C@H]1C[C@H](Oc2cc(F)c(F)c(-c3c(F)cc(OCCCC(=O)O)cc3F)c2)C1 [Compound 6] | 93 nM | > 100000 nM |  |  |  |
| O=C(O)CCc1cc(F)c(OCc2c(-c3ccc(Cl)cc3F)nsc2C(F)(F)F)c(F)c1 [Compound 7] |  |  | 42 nM | > 5000 nM |  |
| O=S1(=O)c2ccccc2CN1c1cc(F)cc(Oc2ccccn2)c1 [Compound 5] |  |  | 123 nM |  | Inactive |
| CO[C@H]1C[C@H](Oc2cc(F)c(F)c(-c3ccc4c(c3)CC[C@H](CCC(=O)O)O4)c2)C1 [Compound 4] |  |  | 35 nM | > 10000 nM |  |
| Cc1ccc(-c2ccc(F)cc2COc2ccc(CC3SC(=O)NC3=O)c(Cl)c2)cc1 (stereo not drawn) [Compound 8] |  |  | 76 nM | 79000 nM |  |
| Cc1ccc(-n2nc(C)c3cnc(-c4ccc([C@H]5C[C@@H]5C(=O)O)cc4)cc32)nc1 [Compound 3] |  |  | 740 nM | > 100000 nM |  |
